Test results as given in patent US12708113B2, “Herbicidal compositions and methods of use thereof” (Valent U.S.A. LLC, priority 2018, dated 2026).

Experiment: Metribuzin solubility in salt solutions
Assay type: physicochemical
Settings: ammonium sulfate, ammonium acetate and potassium citrate tribasic monohydrate solutions; FIG. 1
Protocol: Metribuzin is partially soluble in water. Because of its partial solubility metribuzin grows crystals in aqueous solutions. It is a discovery of the present invention that, if water solubility of metribuzin is lowered, then crystal growth is inhibited or reduced. To determine if salts could lower the water solubility of metribuzin, metribuzin was added to the saturation point to several concentrations of ammonium sulfate, ammonium acetate and potassium citrate tribasic monohydrate solutions. Results can be seen in FIG. 1.

CSc1nnc(C(C)(C)C)c(=O)n1N [metribuzin, Metribuzin]
water solubility of metribuzin versus salt concentration: negatively correlated
